# Measured values: the supplement of paper PMC10307832
# Assays:
# Test in all cases: relative viability (nuclei count vs DMSO), 5 days (fraction); higher = more cells survive
# Sulindac + Alpelisib = compound: CC1=C(CC(=O)O)c2cc(F)ccc2/C1=C\c1ccc([S+](C)[O-])cc1 [Sulindac] + Cc1nc(NC(=O)N2CCC[C@H]2C(N)=O)sc1-c1ccnc(C(C)(C)C(F)(F)F)c1 [Alpelisib] (partner 2 µM)
# Summary of the method: (§1)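 Lung cancer cell lines in 1536-well plates were dosed by pin tool the day after seeding, either with one drug alone or with a fixed anchor-drug dose plus five library-drug doses (not always all listed) in √10 steps. After 5 days, cells were fixed and their nuclei stained in one step (final 0.05% Triton X-100, 1% formaldehyde, 1 ug/ml Hoechst), then counted on 4× images. Relative viability is the nuclei count in treated wells divided by that in vehicle wells. Values are medians of duplicate plates.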
# [1] = compound: CN[C@@H]1C[C@H]2O[C@@](C)([C@@H]1OC)n1c3ccccc3c3c4c(c5c6ccccc6n2c5c31)C(=O)NC4 [Staurosporine] + Nc1ncn([C@H]2C[C@H](O)[C@@H](CO)O2)c(=O)n1 [Decitabine] (partner 2 µM)
# Summary of the method: as §1
# [2] = compound: O=c1[nH]cc(F)c(=O)[nH]1 [5-Fluorouracil] + CS(=O)(=O)N1CCN(Cc2cc3nc(-c4cccc5[nH]ncc45)nc(N4CCOCC4)c3s2)CC1 [Pictilisib] (partner 1 µM)
# Summary of the method: as §1
# [3] = compound: O=c1[nH]cc(F)c(=O)[nH]1 [5-Fluorouracil] + N=C(N)NC(=N)NCCc1ccccc1 [Phenformin] (partner 250 µM)
# Summary of the method: as §1
cell line,measurement,setting,value
A-427,relative viability,Sulindac + Alpelisib; first compound 0.08 µM,1.03
same,relative viability,Sulindac + Alpelisib; first compound 0.253 µM,1.08
same,relative viability,Sulindac + Alpelisib; first compound 0.8 µM,0.534
same,relative viability,Sulindac + Alpelisib; first compound 2.53 µM,1.09
same,relative viability,Sulindac + Alpelisib; first compound 8 µM,1.11
same,relative viability,[1]; first compound 0.005 µM,0.573
same,relative viability,[1]; first compound 0.01581 µM,0.448
same,relative viability,[1]; first compound 0.05 µM,0.282
same,relative viability,[1]; first compound 0.1581 µM,0.18
same,relative viability,[1]; first compound 0.5 µM,0.149
same,relative viability,[2]; first compound 0.02 µM,0.664
same,relative viability,[2]; first compound 0.2 µM,0.823
same,relative viability,[2]; first compound 0.6325 µM,0.581
same,relative viability,[2]; first compound 2 µM,0.587
same,relative viability,[3]; first compound 0.02 µM,0.29
same,relative viability,[3]; first compound 0.2 µM,0.461
same,relative viability,[3]; first compound 0.6325 µM,0.279
same,relative viability,[3]; first compound 2 µM,0.212
